The subject of one test is Vero. Put plainly: Vero cell cytotoxicity, cytotoxicity control for flavivirus capping enzyme inhibitors (AID 588742). Type of test: functional. The conditions noted are these: Chlorocebus sabaeus.
The test system of test [1] is Streptococcus sp. 'group A'. As to the kind of experiment: growth inhibition of control SK(-) GAS strain, dose response, counter-screen for streptokinase expression inhibitor project, luminescence, kanamycin, BacTiterGlo, confirmation (AID 1900). Type of test: functional, organism-based.
The target of another test is T1, Streptokinase A (Streptococcus pyogenes serotype M1, UniProt P10520).
T1 sequence (P10520 whole entry): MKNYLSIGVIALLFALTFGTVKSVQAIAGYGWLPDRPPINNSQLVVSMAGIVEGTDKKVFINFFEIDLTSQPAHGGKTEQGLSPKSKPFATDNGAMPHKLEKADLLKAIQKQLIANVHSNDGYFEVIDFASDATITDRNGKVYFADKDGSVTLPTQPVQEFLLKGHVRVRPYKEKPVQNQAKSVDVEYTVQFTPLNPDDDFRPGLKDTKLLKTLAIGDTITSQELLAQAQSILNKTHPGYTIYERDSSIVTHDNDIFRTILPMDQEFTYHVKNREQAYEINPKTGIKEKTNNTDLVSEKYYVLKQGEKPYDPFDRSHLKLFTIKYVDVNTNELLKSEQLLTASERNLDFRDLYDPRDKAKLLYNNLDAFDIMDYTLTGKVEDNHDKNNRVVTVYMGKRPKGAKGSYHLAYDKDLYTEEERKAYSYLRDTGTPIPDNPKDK
Put plainly: S. pyogenes streptokinase expression inhibitors, potency, dose response, plasminogen activation absorbance, OD405 (AID 1914).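 Further: secreted streptokinase activity via plasminogen activation per viability signal from cell pellet.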 Type of test: functional, Streptococcus pyogenes M1 GAS.

Test [2] has as its target G-protein coupled receptor 55 (Homo sapiens, UniProt Q9Y2T6). Put plainly: GPR55 antagonists blocking LPI-driven arrestin recruitment, primary screen, imaging, U2OS, beta-arrestin-GFP, LPI agonist (AID 2013).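 Further: antagonist potency measured as reduced agonist-driven arrestin aggregation.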 It counts as functional.
Another test deals with Streptococcus. Put plainly: Group A Streptococcus viability loss, dose response, counter-screen for streptokinase expression inhibitor project, luminescence, BacTiterGlo (AID 1915).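 Further: potency for reduction of bacterial viability or growth.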 Type of test: functional, organism-based.
For a further test, the system named is HEK293. As to the kind of experiment: inhibitors of LMP1-driven NF-kB reporter, dose response, cell-based, HEK293, luciferase, cherry-pick (AID 588343). Type of test: functional. The conditions noted are these: Homo sapiens.
A short description of test [3]: LGR2 antagonists, dose response, cell-based, HEK293, CRE-luciferase reporter, cherry pick, set 2 (AID 743343).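 Further: transfected cells were stimulated with diluted bursicon conditioned medium after compound addition.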 Type of test: functional.
Test [4] in a line: MC4R antagonists, dose response, counter-screen for LGR2 antagonist project, cell-based, plate reader, cherry pick (AID 743444).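 Further: transfected HEK 293 cells stimulated with alpha-MSH peptide; potency of inhibitors of the alpha-MSH evoked signal.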 It counts as functional.
Test [5] is described as follows: NIH-3T3 fibroblast cytotoxicity, dose response, cytotoxicity control, cell-based, fluorescence, Alamar Blue, secondary assay (AID 2327).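 Further: NIH-3T3 mouse fibroblasts cultured with fluconazole at 8 µg/mL.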 It counts as functional.
A short description of test [6]: C. albicans growth with fluconazole, confirmation, fluorescence, retest (AID 2467). Type of test: functional, cell-based.
The target in test [7] is T2, Serine/threonine-protein phosphatase (Candida dubliniensis (strain CD36 / CBS 7987 / NCPF 3949 / NRRLY-17841) (Yeast), UniProt B9W6M3).
T2 sequence (B9W6M3 whole entry): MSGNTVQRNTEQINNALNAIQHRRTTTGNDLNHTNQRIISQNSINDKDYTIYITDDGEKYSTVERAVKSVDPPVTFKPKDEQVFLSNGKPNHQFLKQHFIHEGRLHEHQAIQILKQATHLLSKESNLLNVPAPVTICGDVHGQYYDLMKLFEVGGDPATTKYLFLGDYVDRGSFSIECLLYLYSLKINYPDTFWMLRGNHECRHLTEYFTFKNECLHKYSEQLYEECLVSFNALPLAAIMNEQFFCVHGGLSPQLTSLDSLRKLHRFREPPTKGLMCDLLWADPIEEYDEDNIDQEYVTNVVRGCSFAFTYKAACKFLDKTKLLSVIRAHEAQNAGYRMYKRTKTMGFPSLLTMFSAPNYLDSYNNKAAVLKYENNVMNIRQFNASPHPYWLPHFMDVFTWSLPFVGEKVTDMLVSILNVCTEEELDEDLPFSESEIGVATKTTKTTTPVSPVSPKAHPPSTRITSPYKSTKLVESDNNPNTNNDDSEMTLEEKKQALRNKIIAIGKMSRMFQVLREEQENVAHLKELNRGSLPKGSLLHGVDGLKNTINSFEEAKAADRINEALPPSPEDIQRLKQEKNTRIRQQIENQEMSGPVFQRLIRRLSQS
Put plainly: calcineurin pathway inhibitors in yeast reporter, dose response, S. cerevisiae, CDRE-lacZ, luminescence, secondary (AID 2388).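 Further: yeast reporter cells carrying a calcineurin-responsive lacZ construct stimulated with calcium chloride; luminescent beta-galactosidase reporter signal in whole cells rather than isolated phosphatase activity; potency for inhibition where a drop in reporter signal means calcineurin blockade.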 It counts as functional, cell-based.

Test [8] has as its target Cyclin-dependent kinase 5/CDK5 activator 1 (Homo sapiens, UniProt Q00535). As to the kind of experiment: CDK5/p35 kinase inhibitors, dose response, biochemical, cherry-picked samples, set 2 (AID 504545).
The target in the next test is T3, Caspase-3 (Homo sapiens, UniProt P42574).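 Further: Dose-response selectivity test against caspase-3 for candidate inhibitors of sentrin-specific proteases (SENPs).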
T3 sequence (P42574 whole entry): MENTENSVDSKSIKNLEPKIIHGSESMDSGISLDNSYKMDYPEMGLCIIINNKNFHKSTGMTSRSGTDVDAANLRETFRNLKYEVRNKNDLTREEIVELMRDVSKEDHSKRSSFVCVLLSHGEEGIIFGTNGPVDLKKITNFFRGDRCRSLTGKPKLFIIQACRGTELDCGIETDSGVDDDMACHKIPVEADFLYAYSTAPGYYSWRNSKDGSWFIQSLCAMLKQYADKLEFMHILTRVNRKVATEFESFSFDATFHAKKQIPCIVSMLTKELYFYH
It counts as functional.

In test [9] the target is T4, Sentrin-specific protease 7 (Homo sapiens, UniProt Q9BQF6).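 Further: Luminescence-based dose-response confirmation of ultra-high-throughput screening hits, measuring inhibition of SENP7.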
T4 sequence (Q9BQF6 whole entry): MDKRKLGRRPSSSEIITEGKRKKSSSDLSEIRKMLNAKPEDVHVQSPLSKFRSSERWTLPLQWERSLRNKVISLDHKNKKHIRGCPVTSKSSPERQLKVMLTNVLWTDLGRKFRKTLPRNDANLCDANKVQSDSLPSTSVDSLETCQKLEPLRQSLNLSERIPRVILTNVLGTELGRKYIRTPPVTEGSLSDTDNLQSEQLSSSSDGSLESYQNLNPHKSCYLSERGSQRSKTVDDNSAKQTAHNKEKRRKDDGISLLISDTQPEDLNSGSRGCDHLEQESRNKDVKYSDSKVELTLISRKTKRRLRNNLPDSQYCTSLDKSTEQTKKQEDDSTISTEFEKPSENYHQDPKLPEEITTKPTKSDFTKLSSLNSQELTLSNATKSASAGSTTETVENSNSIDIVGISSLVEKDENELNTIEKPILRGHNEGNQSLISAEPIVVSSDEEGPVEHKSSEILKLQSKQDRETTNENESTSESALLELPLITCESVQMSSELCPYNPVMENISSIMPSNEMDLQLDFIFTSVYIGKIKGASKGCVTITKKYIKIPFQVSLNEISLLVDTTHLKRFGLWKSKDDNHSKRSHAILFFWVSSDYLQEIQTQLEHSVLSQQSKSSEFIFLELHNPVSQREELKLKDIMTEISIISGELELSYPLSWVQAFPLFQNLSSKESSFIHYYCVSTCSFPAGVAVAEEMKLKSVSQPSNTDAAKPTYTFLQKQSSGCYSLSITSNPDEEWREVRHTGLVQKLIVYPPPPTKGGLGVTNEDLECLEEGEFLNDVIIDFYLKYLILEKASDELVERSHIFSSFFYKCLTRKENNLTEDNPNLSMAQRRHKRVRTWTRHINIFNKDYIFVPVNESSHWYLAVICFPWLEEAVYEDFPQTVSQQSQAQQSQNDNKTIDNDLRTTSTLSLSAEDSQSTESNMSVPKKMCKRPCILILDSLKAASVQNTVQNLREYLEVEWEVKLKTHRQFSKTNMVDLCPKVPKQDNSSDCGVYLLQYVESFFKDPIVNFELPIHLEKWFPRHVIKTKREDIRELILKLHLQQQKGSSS
It counts as functional.

Test [10] has as its target T5, Sentrin-specific protease 6 (Homo sapiens, UniProt Q9GZR1).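 Further: Luminescence-based dose-response confirmatory assay of SENP6 inhibition, following up an ultra-high-throughput screen.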
T5 sequence (Q9GZR1 whole entry): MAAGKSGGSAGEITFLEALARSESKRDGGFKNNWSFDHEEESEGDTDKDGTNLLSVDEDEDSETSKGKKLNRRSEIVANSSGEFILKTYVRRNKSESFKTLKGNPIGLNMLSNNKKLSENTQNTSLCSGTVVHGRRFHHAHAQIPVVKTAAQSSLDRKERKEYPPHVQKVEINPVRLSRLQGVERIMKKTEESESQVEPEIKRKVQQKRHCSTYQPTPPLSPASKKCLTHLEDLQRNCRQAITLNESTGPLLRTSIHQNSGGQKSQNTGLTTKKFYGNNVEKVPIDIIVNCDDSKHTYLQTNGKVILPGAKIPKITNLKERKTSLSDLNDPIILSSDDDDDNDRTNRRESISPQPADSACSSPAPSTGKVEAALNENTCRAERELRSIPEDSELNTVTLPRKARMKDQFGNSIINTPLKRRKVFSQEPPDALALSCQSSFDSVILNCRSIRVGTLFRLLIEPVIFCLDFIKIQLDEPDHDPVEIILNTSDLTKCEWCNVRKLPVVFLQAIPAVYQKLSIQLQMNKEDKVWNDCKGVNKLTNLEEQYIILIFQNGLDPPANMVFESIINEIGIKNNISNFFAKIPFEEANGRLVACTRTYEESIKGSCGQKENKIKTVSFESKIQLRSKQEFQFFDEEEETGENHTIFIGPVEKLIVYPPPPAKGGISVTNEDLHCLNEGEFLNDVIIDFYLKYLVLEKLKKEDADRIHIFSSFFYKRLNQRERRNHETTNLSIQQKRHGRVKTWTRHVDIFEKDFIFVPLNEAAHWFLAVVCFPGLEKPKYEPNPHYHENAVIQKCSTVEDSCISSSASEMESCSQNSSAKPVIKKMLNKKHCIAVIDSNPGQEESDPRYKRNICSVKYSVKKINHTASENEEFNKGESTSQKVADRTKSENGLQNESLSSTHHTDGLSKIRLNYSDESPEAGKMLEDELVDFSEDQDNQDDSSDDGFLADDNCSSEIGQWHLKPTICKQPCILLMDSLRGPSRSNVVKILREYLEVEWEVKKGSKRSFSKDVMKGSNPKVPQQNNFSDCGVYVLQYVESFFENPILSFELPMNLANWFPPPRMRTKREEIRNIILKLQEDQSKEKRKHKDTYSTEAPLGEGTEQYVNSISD
It counts as functional.

Test [11] deals with T6, Sentrin-specific protease 8 (Homo sapiens, UniProt Q96LD8).
T6 sequence (Q96LD8 whole entry): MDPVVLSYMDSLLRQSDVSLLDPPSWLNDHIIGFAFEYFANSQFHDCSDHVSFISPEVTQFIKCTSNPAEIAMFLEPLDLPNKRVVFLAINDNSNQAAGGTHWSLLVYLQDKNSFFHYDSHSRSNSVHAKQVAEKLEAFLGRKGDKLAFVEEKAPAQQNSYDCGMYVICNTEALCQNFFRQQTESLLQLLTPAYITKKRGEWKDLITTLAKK
Type of test: functional.

In test [12] the target is ATP-dependent molecular chaperone HSP82 (Candida albicans (strain WO-1) (Yeast), UniProt C4YTQ8). As to the kind of experiment: loss of DOC-induced GRE-beta-galactosidase reporter signal, dose response, Hsp90 inhibitor project, S. cerevisiae, luminescence (AID 2400).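 Further: beta-galactosidase luminescence from glucocorticoid response element reporter as proxy for Hsp90 function; inhibitor potency where signal loss means Hsp90 inhibition.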 Type of test: functional, cell-based.

Active and inactive are the calls of the source.

Chain of ATP-dependent molecular chaperone HSP82 (C4YTQ8 whole entry): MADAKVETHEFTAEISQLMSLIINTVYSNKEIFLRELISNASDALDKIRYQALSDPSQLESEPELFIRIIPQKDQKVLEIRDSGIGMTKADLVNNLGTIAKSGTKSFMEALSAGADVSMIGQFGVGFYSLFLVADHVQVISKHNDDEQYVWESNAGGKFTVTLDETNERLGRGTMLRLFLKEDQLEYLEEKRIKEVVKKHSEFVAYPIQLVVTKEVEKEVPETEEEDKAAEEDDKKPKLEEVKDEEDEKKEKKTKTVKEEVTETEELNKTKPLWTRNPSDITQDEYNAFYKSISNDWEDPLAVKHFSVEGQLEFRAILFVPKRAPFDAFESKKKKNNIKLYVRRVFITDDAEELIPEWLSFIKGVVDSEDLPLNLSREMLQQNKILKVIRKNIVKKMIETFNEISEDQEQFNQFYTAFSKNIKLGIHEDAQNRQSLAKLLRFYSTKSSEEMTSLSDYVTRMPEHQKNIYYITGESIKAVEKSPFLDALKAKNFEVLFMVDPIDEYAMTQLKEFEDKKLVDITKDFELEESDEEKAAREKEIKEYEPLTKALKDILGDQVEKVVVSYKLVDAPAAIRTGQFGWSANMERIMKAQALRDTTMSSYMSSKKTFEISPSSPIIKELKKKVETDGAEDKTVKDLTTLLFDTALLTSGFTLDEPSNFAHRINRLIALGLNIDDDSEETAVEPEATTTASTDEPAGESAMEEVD
Chain of Cyclin-dependent kinase 5/CDK5 activator 1 (Q00535 whole entry): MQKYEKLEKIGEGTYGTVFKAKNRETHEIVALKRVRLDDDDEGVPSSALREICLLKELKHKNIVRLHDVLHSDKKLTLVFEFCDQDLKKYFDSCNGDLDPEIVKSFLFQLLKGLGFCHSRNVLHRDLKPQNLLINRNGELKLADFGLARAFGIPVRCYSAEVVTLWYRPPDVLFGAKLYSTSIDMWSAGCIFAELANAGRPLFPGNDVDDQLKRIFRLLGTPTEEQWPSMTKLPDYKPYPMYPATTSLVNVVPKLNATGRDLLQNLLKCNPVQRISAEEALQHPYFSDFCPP
Chain of Cyclin-dependent kinase 5/CDK5 activator 1 (Q15078 whole entry, further chain): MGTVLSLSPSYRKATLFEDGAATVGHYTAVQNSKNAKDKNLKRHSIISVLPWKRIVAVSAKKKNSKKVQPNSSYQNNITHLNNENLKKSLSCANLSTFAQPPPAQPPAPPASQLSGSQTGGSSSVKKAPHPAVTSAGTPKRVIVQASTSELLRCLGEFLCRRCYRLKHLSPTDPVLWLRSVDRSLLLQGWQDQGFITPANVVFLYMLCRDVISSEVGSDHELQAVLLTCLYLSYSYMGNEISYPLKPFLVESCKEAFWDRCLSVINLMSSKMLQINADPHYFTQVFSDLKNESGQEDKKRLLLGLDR
Chain of G-protein coupled receptor 55 (Q9Y2T6 whole entry): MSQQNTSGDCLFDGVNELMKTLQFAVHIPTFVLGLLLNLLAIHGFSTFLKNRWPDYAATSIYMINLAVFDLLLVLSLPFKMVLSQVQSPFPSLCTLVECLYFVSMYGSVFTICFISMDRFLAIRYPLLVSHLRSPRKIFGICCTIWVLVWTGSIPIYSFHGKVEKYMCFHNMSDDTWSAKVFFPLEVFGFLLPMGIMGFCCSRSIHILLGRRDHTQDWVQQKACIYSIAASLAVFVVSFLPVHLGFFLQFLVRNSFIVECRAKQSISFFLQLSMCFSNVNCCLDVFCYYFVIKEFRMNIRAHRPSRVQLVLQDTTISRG

With `O=C1C(=Cc2ccccc2[N+](=O)[O-])Cc2ccccc21`, the CC50 with Vero is 20.9 µM (active).

On to `COc1ccc(NC2=NCC(Cc3ccc(Br)cc3)S2)cc1` (stereo unspecified), for which the EC50 in [1] is 9.96 µM (active); on Streptokinase A, > 150 µM (not active); with Streptococcus, > 150 µM (not active). Moreover, the IC50 in [2] is 1.31 µM (active). In the test on HEK293, the AC50 was 183 µM (active).

Consider `Cc1cnc(NC(=O)c2ccc(OCC3CCCO3)cc2)s1` (stereo unspecified), for which the AC50 is 1.93 µM (active) with HEK293, 4.84 µM (active) in [3] and 5.51 µM (active) in [4].

`CCOC(=O)c1cn2nc(N3CCCCC3)ccc2n1`: the figures for the AC50 (with HEK293; in [3]; in test [4]) were 2.8 µM (active), 2.62 µM (active) and 5.1 µM (active), respectively.

Turning to `CCNc1nc(N)nc(-c2cc(Cl)ccc2O)n1`, the half-maximal effective concentration (EC50) in test [5] is 40.2 µM (active); in test [6], 530 nM (active); in test [7] it was > 180 µM (inactive); in test [12], 20.1 µM (active). The AC50 in test [8] was 7.06 µM (active). The half-inhibitory concentration (IC50) on Caspase-3 is 18.9 µM (active); in [9], 3.99 µM (active); in test [10], 12 µM (active); in [11], 13.7 µM (active).

These data come from ChEMBL document CHEMBL1201862, “PubChem BioAssay data set” (2004).
